The target in the assay is T1, ATM (Homo sapiens, UniProt Q13315).
T1 construct: detecting phosphorylation of Chk2 in a human non-small cell lung cancer cell line NCI-H460 (ATCC company); host or cells: NCI-H460 human non-small cell lung cancer cells
T1 sequence (Q13315 whole entry): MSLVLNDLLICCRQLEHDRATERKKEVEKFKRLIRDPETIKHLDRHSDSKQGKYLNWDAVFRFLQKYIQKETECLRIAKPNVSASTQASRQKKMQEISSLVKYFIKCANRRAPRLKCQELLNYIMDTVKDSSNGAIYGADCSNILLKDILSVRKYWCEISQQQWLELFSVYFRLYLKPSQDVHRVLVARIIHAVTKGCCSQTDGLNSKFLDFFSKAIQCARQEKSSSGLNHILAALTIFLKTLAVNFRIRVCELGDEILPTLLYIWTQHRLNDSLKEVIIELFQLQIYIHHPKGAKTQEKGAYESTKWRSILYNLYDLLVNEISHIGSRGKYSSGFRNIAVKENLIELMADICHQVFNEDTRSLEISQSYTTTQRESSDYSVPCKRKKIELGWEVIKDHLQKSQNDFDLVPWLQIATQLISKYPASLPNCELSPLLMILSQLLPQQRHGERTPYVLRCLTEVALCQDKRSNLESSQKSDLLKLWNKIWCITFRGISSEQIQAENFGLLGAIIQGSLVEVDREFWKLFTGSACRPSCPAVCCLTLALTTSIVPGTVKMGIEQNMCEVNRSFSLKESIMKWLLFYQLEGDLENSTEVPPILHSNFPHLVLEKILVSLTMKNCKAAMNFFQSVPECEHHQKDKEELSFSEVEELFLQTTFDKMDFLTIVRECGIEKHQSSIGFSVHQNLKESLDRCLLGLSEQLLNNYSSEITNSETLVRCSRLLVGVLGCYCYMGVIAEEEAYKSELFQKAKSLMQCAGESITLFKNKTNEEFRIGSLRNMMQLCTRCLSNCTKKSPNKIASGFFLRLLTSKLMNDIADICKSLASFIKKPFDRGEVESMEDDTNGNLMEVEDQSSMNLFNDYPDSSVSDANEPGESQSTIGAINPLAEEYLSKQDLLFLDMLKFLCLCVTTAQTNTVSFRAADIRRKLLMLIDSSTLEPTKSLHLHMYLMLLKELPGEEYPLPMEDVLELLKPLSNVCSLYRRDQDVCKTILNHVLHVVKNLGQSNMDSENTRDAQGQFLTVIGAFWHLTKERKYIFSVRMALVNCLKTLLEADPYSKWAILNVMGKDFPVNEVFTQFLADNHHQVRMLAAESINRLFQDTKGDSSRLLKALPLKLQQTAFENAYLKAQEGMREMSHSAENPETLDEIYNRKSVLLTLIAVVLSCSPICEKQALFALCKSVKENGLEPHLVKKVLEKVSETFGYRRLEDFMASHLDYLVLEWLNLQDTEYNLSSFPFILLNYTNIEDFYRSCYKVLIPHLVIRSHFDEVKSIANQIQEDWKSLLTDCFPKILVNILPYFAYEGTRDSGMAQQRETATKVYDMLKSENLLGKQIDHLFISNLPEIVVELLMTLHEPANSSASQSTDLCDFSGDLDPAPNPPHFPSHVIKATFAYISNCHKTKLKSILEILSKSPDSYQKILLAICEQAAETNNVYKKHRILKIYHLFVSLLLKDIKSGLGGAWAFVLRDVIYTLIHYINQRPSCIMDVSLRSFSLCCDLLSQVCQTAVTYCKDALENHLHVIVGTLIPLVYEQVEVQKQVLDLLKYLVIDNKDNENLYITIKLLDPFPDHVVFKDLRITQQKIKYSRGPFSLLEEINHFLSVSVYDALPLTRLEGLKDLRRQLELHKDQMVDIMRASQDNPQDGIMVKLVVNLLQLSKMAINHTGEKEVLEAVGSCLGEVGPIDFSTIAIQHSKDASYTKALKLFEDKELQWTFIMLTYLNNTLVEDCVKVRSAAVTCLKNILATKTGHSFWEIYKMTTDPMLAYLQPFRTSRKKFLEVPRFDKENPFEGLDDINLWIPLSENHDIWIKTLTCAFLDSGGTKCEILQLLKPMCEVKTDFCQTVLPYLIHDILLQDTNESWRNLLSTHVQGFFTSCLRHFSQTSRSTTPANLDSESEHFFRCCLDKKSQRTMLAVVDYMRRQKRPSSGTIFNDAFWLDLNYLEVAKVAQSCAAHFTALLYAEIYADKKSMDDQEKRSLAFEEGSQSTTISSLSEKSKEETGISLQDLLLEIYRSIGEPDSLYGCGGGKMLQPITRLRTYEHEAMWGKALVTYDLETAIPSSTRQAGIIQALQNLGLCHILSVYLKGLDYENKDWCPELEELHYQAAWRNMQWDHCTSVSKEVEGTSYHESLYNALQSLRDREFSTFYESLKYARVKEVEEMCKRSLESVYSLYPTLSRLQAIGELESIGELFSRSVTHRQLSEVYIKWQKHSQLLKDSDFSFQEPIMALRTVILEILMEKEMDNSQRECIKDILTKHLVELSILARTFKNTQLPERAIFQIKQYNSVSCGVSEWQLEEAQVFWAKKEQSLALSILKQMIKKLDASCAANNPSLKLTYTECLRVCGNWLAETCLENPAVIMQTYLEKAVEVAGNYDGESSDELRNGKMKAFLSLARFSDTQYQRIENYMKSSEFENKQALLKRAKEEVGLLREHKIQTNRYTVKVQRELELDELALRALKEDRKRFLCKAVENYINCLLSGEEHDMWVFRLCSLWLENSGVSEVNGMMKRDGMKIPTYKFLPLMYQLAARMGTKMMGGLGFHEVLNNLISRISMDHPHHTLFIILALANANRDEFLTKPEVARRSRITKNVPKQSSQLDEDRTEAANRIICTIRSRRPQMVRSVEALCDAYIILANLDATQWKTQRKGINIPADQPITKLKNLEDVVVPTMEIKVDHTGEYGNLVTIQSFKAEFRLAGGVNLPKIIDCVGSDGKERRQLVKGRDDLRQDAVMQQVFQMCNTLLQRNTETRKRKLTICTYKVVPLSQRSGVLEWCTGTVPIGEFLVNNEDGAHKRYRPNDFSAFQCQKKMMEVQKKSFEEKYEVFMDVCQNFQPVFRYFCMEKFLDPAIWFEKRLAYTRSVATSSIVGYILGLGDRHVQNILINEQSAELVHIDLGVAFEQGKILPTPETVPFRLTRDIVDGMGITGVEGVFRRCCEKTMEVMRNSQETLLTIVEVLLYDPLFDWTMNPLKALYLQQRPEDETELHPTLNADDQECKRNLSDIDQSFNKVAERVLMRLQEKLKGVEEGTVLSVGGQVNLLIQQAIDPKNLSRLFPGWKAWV
Put plainly: ATM inhibition test (phosphorylation of Chk2 generated by ionizing radiation, AlphaScreen SureFire). Type of assay: cell-based. The note with it: phosphorylated Chk2 in NCI-H460 cells, ionizing radiation 8Gy, 1 hour after test compound treatment; read-out: ATM inhibitory activity. How it is done: ATM inhibitory effects of a test compound were measured by detecting phosphorylation of Chk2 in a human non-small cell lung cancer cell line NCI-H460 (ATCC company). The level of phosphorylated Chk2 generated by an ionizing radiation was measured using AlphaScreen SureFire (TGR Biosciences).
The cells were seeded by 40000 cells per well in 96-well CellBIND® plates (Corning International Inc.), and incubated at 37° C. overnight in 5% CO2. […] 1 hour after a test compound treatment, half of the plates were irradiated with ionizing radiation 8Gy (Faxitron Bioptics, LLC, RX-650 type). The plates irradiated with ionizing radiation and the plates not being irradiated with ionizing radiation were incubated at 37° C. for 1 hour in 5% CO2. […] Subsequent operations were performed according to the instruction book of AlphaScreen SureFire. […] The inhibition ratio was calculated by the following equation. Inhibition ratio (%)=((signal of drug untreated wells in the plates irradiated with ionizing radiation−signal of drug treated wells in the plates irradiated with ionizing radiation)/(signal of drug untreated wells in the plates irradiated with ionizing radiation−signal of drug untreated wells in the plates not being irradiated with ionizing radiation))×100
For orientation: In Alpha technology, singlet oxygen from a donor bead excites a nearby acceptor bead.
As for `Cc1nccc(CNc2ccc3c(c2)Cc2cccc(-c4cc(N5CCOCC5)cc(=O)[nH]4)c2O3)n1` [Example 2-14-68, 6-(7-(((2-Methylpyrimidin-4-yl)methyl)amino)-9H-xanthen-4-yl)-4-morpholino pyridin-2(1H)-one], the IC50 is 500 to 2000 nM.

As to `O=c1cc(N2CCOCC2)cc(-c2cccc3c2Oc2ccc(NCCN4CCOCC4)cc2C3)[nH]1` [Example 2-23-2, 4-Morpholino-6-(7-((2-morpholinoethyl)amino)-9H-xanthen-4-yl)pyridin-2(1H)-one], the IC50 lay in the range of 500 to 2000 nM. Turning to `COC(=O)CCCCN1CCC(Nc2ccc3c(c2)Cc2cccc(-c4cc(N5CCOCC5)cc(=O)[nH]4)c2O3)CC1` [Example 2-30-16, Methyl 5-(4-((5-(4-morpholino-6-oxo-1,6-dihydropyridin-2-yl)-9H-xanthen-2-yl)amino)piperidin-1-yl)pentanoate], the IC50 was in the range of 100 to 500 nM. For the compound `CC(CN1CCN(Cc2cccnc2)CC1)Nc1ccc2c(c1)Sc1cccc(-c3cc(N4CCOCC4)cc(=O)[nH]3)c1S2` (stereo not drawn) [Example 1-15-3, 4-Morpholino-6-(7-((1-(4-(pyridin-3-ylmethyl)piperazin-1-yl)propan-2-yl)amino)thianthren-1-yl)pyridin-2(1H)-one], the IC50 fell in the range of 100 to 500 nM. In the case of `O=c1cc(N2CCOCC2)cc(-c2cccc3c2Oc2ccc(NCCc4cccnc4)cc2C3)[nH]1` [Example 2-12, 4-morpholino-6-(7-((2-(pyridin-3-yl)ethyl)amino)-9H-xanthen-4-yl)pyridin-2(1H)-one], the IC50 lay within 100 to 500 nM. `COc1cc(CNc2ccc3c(c2)Sc2cccc(-c4cc(N5CCOCC5)cc(=O)[nH]4)c2O3)ccn1` [Example 4-8-4, 6-(8-(((2-Methoxypyridin-4-yl)methyl)amino)phenoxathiin-4-yl)-4-morpholino pyridin-2(1H)-one]: the IC50 fell in the range of 100 to 500 nM. Take `CC(Nc1ccc2c(c1)Sc1cccc(-c3cc(N4CCOCC4)cc(=O)[nH]3)c1S2)c1cccc(CN(C)C)n1` (stereo not drawn) [Example 1-12-111, 6-(7-((1-(6-((Dimethylamino)methyl)pyridin-2-yl)ethyl)amino)thianthren-1-yl)-4-morpholino pyridin-2(1H)-one]: the IC50 was 100 to 500 nM. Turning to `O=c1cc(N2CCOCC2)cc(-c2cccc3c2Sc2ccc(NCCN4CCC(F)(F)CC4)cc2S3)[nH]1` [Example 1-10-1, 6-(7-((2-(4,4-Difluoropiperidin-1-yl)ethyl)amino)thianthren-1-yl)-4-morpholinopyridin-2(1H)-one], the IC50 lay in the range of 100 to 500 nM. As for `CC(CN1CCN(Cc2ccccc2)CC1)Nc1ccc2c(c1)Sc1cccc(-c3cc(N4CCOCC4)cc(=O)[nH]3)c1S2` (stereo not drawn) [Example 1-15-1, 6-(7-((1-(4-Benzylpiperazin-1-yl)propan-2-yl)amino)thianthren-1-yl)-4-morpholinopyridin-2(1H)-one], the IC50 is 100 to 500 nM.

For `Cc1cnc(C(CCN(C)C)Nc2ccc3c(c2)Sc2cccc(-c4cc(=O)cc(N5CCOCC5)o4)c2O3)cn1` (single isomer, unassigned) [Example 10-9, 2-(8-((3-(Dimethylamino)-1-(5-methylpyrazin-2-yl)propyl)amino)phenoxathiin-4-yl)-6-morpholino-4H-pyran-4-one], the IC50 was below 100 nM. Then “4-Morpholino-6-(7-((1-(5- (morpholino methyl) pyrimidin-2-yl)ethyl) amino)thianthren-1- yl)pyridin-2(1H)-one [Example 1-12-95]”, with 100 to 500 nM. Then `Cc1cccc(C(CN)Nc2ccc3c(c2)Sc2cccc(-c4cc(N5CCOCC5)cc(=O)[nH]4)c2S3)n1` (stereo not drawn) [Example 1-19-2, 6-(7-((2-Amino-1-(6-methylpyridin-2-yl)ethyl)amino)thianthren-1-yl)-4-morpholinopyridin-2(1H)-one], with 100 to 500 nM; and `Cc1ccc(C(Nc2ccc3c(c2)Sc2cccc(-c4cc(N5CCOCC5)cc(=O)[nH]4)c2S3)[C@H]2CN(C)CCO2)nc1` (single isomer, unassigned) [Example 1-56-13], with below 100 nM; and `CC(CNc1ccc2c(c1)Sc1cccc(-c3cc(N4CCOCC4)cc(=O)[nH]3)c1S2)N1CCOCC1` (single isomer, unassigned) [Example 1-9-2-3, 4-morpholino-6-(7-((2-morpholinopropyl)amino)thianthren-1-yl)pyridin-2(1H)-one], with 100 to 500 nM. For the compound `O=C(CNc1ccc2c(c1)Sc1cccc(-c3cc(N4CCOCC4)cc(=O)[nH]3)c1S2)N1CCCC1` [Example 1-18-1, 4-morpholino-6-(7-((2-oxo-2-(pyrrolidin-1-yl)ethyl)amino)thianthren-1-yl)pyridin-2(1H)-one], the IC50 is 100 to 500 nM.

In the case of `CNCC(Nc1ccc2c(c1)Sc1cccc(-c3cc(N4CCOCC4)cc(=O)[nH]3)c1S2)c1nccc(C)n1` (stereo not drawn) [Example 1-16-5, 6-(7-((2-(Methylamino)-1-(4-methylpyrimidin-2-yl)ethyl)amino)thianthren-1-yl)-4-morpholinopyridin-2(1H)-one], the IC50 was in the range of 500 to 2000 nM. Turning to `COCCN1CCCC(Nc2ccc3c(c2)Sc2cccc(-c4cc(N5CCOCC5)cc(=O)[nH]4)c2S3)C1` (stereo not drawn) [Example 1-26-2, 6-(7-((1-(2-Methoxyethyl)piperidin-3-yl)amino)thianthren-1-yl)-4-morpholinopyridin-2(1H)-one], the IC50 is below 100 nM. The same measure for `CNc1ccc(CNc2ccc3c(c2)Sc2cccc(-c4cc(N5CCOCC5)cc(=O)[nH]4)c2S3)cn1` [Example 1-12-8, 6-(7-(((6-(Methylamino)pyridin-3-yl)methyl)amino)thianthren-1-yl)-4-morpholino pyridin-2(1H)-one]: 100 to 500 nM; for `CC(CN1CC(C)OC(C)C1)Nc1ccc2c(c1)Sc1cccc(-c3cc(N4CCOCC4)cc(=O)[nH]3)c1S2` (stereo not drawn) [Example 1-13-11, 6-(7-((1-(2,6-Dimethylmorpholino)propan-2-yl)amino)thianthren-1-yl)-4-morpholino pyridin-2(1H)-one]: below 100 nM. Consider `Cc1cncc(C(C)Nc2ccc3c(c2)Cc2cccc(-c4cc(N5CCOCC5)cc(=O)[nH]4)c2O3)c1` (single isomer, unassigned) [Example 2-14-88-2, 6-(7-((1-(5-methylpyridin-3-yl)ethyl)amino)-9H-xanthen-4-yl)-4-morpholinopyridin-2(1H)-one], for which the IC50 lay within 100 to 500 nM. “Ethyl 6-(((6-(4-morpholino- 6-oxo-1,6-dihydropyridin-2- yl)thianthren-2-yl)amino) methyl)picol [Example 1-12-56]”: the IC50 lay within 100 to 500 nM. As for `O=c1cc(N2CCOCC2)cc(-c2cccc3c2Oc2ccc(NCc4cncc(C5=CCCC5)c4)cc2C3)[nH]1` [Example 2-2-61, 6-(7-(((5-(Cyclopent-1-en-1-yl)pyridin-3-yl)methyl)amino)-9H-xanthen-4-yl)-4-morpholino pyridin-2(1H)-one], the IC50 lay in the range of 100 to 500 nM. Regarding `CNc1ncc(CN2CCC(Nc3ccc4c(c3)Cc3cccc(-c5cc(N6CCOCC6)cc(=O)[nH]5)c3O4)CC2)cn1` [Example 2-28-12, 6-(7-((1-((2-(Methylamino)pyrimidin-5-yl)methyl)piperidin-4-yl)amino)-9H-xanthen-4-yl)-4-morpholino pyridin-2 (1H)-one], the IC50 lay within 500 to 2000 nM.

With `O=c1cc(N2CCOCC2)cc(-c2ccc(F)c3c2Oc2ccc(NCc4cncc(Cl)c4)cc2C3)[nH]1` [Example 2-44-3, 6-(7-(((5-Chloropyridin-3-yl)methyl)amino)-1-fluoro-9H-xanthen-4-yl)-4-morpholinopyridin-2(1H)-one], the IC50 lay in the range of 100 to 500 nM. The same measure for `COc1cccc(CNc2ccc3c(c2)Cc2ccnc(-c4cc(N5CCOCC5)cc(=O)[nH]4)c2O3)n1` [Example 2-42-7, 6-(7-(((6-Methoxypyridin-2-yl)methyl)amino)-5H-chromeno[2,3-c]pyridin-1-yl)-4-morpholinopyridin-2(1H)-one]: 500 to 2000 nM; for `CC(CN1CC(F)(F)C1)Nc1ccc2c(c1)Sc1cccc(-c3cc(N4CCOCC4)cc(=O)[nH]3)c1S2` (stereo not drawn) [Example 1-43-4, 6-(7-((1-(3,3-Difluoroazetidin-1-yl)propan-2-yl)amino)thianthren-1-yl)-4-morpholino pyridin-2(1H)-one]: 100 to 500 nM; for `CC[C@H](N)C(C)Nc1ccc2c(c1)Sc1cccc(-c3cc(N4CCOCC4)cc(=O)[nH]3)c1S2` (stereo partly drawn) [Example 1-20-5, 6-(7-(((3S)-3-Aminopentan-2-yl)amino)thianthren-1-yl)-4-morpholino pyridin-2(1H)-one]: 100 to 500 nM. For the compound `Cc1ccc(CNc2ccc3c(c2)Cc2ccnc(-c4cc(N5CCOCC5)cc(=O)[nH]4)c2O3)nc1` [Example 2-42-2, 6-(7-(((5-Methylpyridin-2-yl)methyl)amino)-5H-chromeno[2,3-c]pyridin-1-yl)-4-morpholinopyridin-2(1H)-one], the IC50 is 100 to 500 nM. The same measure for `Cc1cncc(C(C)Nc2ccc3c(c2)Cc2cccc(-c4cc(N5CCOCC5)cc(=O)[nH]4)c2O3)c1` (stereo not drawn) [Example 2-14-22, 6-(7-((1-(5-Methylpyridin-3-yl)ethyl)amino)-9H-xanthen-4-yl)-4-morpholino pyridin-2(1H)-one]: 100 to 500 nM; for `O=c1cc(N2CCOCC2)cc(-c2cccc3c2Sc2ccc(NC(CO)CN4CCCC4)cc2S3)[nH]1` (stereo not drawn) [Example 1-37-3, 6-(7-((1-Hydroxy-3-(pyrrolidin-1-yl)propan-2-yl)amino)thianthren-1-yl)-4-morpholino pyridin-2(1H)-one]: 500 to 2000 nM.

For the origin of these results see US9586951B2 (FUJIFILM Corporation, priority 2013, dated 2017).
